Like-named read-outs stand apart in the source and are kept apart here.
Experiments:
[1] = system: primary human total T-cells; assay: T-cell activation, IL-2 secretion, Biological Example 2; type: cell-based; conditions: 48 hours, fold change over baseline; for fold induction at 0.3 µM: 0.3 μM inhibitor; for fold induction at 1 µM: 1 μM inhibitor; for fold induction at 3 µM: 3 μM inhibitor
[2] = system: primary human total T-cells; assay: T-cell activation, CD25 surface staining, Biological Example 2; type: cell-based; conditions: 48 hours, fold change over baseline; for fold induction at 0.3 µM: 0.3 μM inhibitor; for fold induction at 1 µM: 1 μM inhibitor; for fold induction at 3 µM: 3 μM inhibitor
Cbl-b = Cbl-b (Homo sapiens (Human), UniProt Q13191); assay: Cbl-b displacement assay (Cbl-b inhibition assay), Biological Example 1; type: binding
Chain of Cbl-b (Q13191 36-427): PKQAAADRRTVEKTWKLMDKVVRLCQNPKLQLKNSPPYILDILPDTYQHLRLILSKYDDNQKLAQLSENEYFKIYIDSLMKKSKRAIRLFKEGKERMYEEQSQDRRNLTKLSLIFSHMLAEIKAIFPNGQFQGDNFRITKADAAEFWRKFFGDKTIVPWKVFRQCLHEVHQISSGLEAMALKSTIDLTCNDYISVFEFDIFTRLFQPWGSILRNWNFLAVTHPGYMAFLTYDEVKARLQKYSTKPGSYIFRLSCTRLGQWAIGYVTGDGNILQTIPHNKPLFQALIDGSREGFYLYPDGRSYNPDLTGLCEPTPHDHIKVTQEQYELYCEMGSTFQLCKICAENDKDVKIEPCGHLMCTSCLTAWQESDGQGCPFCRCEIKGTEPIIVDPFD
Method: Candidate compounds were evaluated for their ability to bind and inhibit Cbl-b, an E3 ubiquitin-protein ligase, as evidenced by their ability to displace a fluorophore-labeled probe (Example 59) bound to Cbl-b.
The ability of candidate compounds to displace a known inhibitor and thereby inhibit Cbl-b activity was measured by monitoring the interaction of Cbl-b with a fluorophore-labeled probe in the presence of the candidate compound. A truncated variant of Cbl-b (UniProt number Q13191; SEQ ID NO:1) containing an Avitag at its N-terminus was co-expressed with BirA biotin ligase and purified using a standard protocol (see Dou et al., Nature Structural and Molecular Biology, 8: 982-987, 2013; Avidity LLC).
Cbl-b Amino Acid Residues 36-427:
Fluorescently-labeled inhibitor probe was synthesized and tagged with BODIPY FL (Example 59). Cbl-b displacement assays were performed in a 384-well plate at room temperature in a 10 μL reaction volume by pre-incubating 0.5 nM Cbl-b or 0.125 nM Cbl-b (final concentration, indicated as “High” and “Low”, respectively) in an assay buffer containing 20 mM HEPES pH 7.5, 150 mM NaCl, 0.01% Triton X-100, 0.01% BSA and 0.5 mM TCEP in the presence of a candidate compound in 1% DMSO (final concentration) for 1 hour. After incubation in the presence of the candidate compound, the plate was incubated for an additional 1 hour in the presence of an approximate EC40 binding saturation consisting of 150 nM fluorescently-labeled inhibitor probe and 2 nM Streptavidin-Terbium (Cisbio) (final concentrations). Following the 1 hour incubation, the plates were read for TR-FRET signal at […] using an Envision plate reader (Perkin Elmer).

[3] = anti-CD3 and anti-CD28 co-stimulation
[4] = anti-CD3 and anti-CD28 co-stimulation, read-out: IL-2 secretion CD3/CD28 1 μM
[5] = anti-CD3 stimulation alone, read-out: IL-2 secretion CD3 1 μM
[6] = anti-CD3 and anti-CD28 co-stimulation, read-out: CD25 staining CD3/CD28 1 μM
[7] = anti-CD3 stimulation alone, read-out: CD25 staining CD3 1 μM
[8] = 0.125 nM Cbl-b final concentration (Low), read-out: Cbl-b activity IC50 (Low)
[9] = read-out: IC50 values in the Cbl-b inhibition assay of Biological Example 1

Row | Compound | fold induction at 0.3 µM [1, 3] | fold induction at 1 µM [1, 4] | fold induction at 1 µM [1, 5] | fold induction at 3 µM ([1]; anti-CD3 stimulation alone) | fold induction at 0.3 µM [2, 3] | fold induction at 1 µM [2, 6] | fold induction at 1 µM [2, 7] | fold induction at 3 µM ([2]; anti-CD3 stimulation alone) | IC50 (Cbl-b; [8]) [nM] | IC50 (Cbl-b; [9]) [nM]
1 | Cn1cnnc1C[C@]1(c2cccc(N3Cc4c(cc(CN5CCC6C(C5)C6(F)F)cc4C(F)(F)F)C3=O)c2)C[C@H](C#N)C1 (some centres unmarked) [Compound 27, (1r,3r)-3-(3-(6-((7,7-difluoro-3-azabicyclo[4.1.0]heptan-3-yl)methyl)-1-oxo-4-(trifluoromethyl)isoindolin-2-yl)phenyl)-3-((4-methyl-4H-1,2,4-triazol-3-yl)methyl)cyclobutane-1-carbonitrile] | ≤ 15 | ≤ 15 | < 0.4 | 0.4 to 0.85 | ≤ 1.24 | ≤ 1.24 | ≤ 1 | ≤ 1 | 2 to 5 | 
2 | Cn1cnnc1C[C@]1(c2cccc(N3Cc4c(cc(CN5CCc6ncccc6C5)cc4C(F)(F)F)C3=O)c2)C[C@H](C#N)C1 [Compound 28, (1r,3r)-3-(3-(6-((7,8-dihydro-1,6-naphthyridin-6(5H)-yl)methyl)-1-oxo-4-(trifluoromethyl)isoindolin-2-yl)phenyl)-3-((4-methyl-4H-1,2,4-triazol-3-yl)methyl)cyclobutane-1-carbonitrile] | ≤ 15 | ≤ 15 | < 0.4 | < 0.4 | ≤ 1.24 | ≤ 1.24 | ≤ 1 | ≤ 1 | 2 to 5 | 
3 | Cn1cnnc1C[C@]1(c2cccc(N3Cc4c(cc(CN5CCCOCC5)cc4C(F)(F)F)C3=O)c2)C[C@H](C#N)C1 [Compound 29, (1r,3r)-3-(3-(6-((1,4-oxazepan-4-yl)methyl)-1-oxo-4-(trifluoromethyl)isoindolin-2-yl)phenyl)-3-((4-methyl-4H-1,2,4-triazol-3-yl)methyl)cyclobutane-1-carbonitrile] | ≤ 15 | ≤ 15 | < 0.4 | 0.4 to 0.85 | 1.24 to 1.39 | 1.24 to 1.39 | > 1.15 | 1 to 1.15 | 2 to 5 | 
4 | Cn1cnnc1C[C@]1(c2cccc(N3Cc4c(cc(CN5CCOCC6(CC6)C5)cc4C(F)(F)F)C3=O)c2)C[C@H](C#N)C1 [Compound 30, (1r,3r)-3-(3-(6-((5-oxa-8-azaspiro[2.6]nonan-8-yl)methyl)-1-oxo-4-(trifluoromethyl)isoindolin-2-yl)phenyl)-3-((4-methyl-4H-1,2,4-triazol-3-yl)methyl)cyclobutane-1-carbonitrile] | ≤ 15 | ≤ 15 | < 0.4 | < 0.4 | ≤ 1.24 | ≤ 1.24 | ≤ 1 | 1 to 1.15 | 2 to 5 | 
5 | Cn1cnnc1C[C@]1(c2cccc(N3Cc4c(cc(CNC5CCC(C)(C)C5)cc4C(F)(F)F)C3=O)c2)C[C@H](C#N)C1 (some centres unmarked) [Compound 31, (1r,3r)-3-(3-(6-(((3,3-dimethylcyclopentyl)amino)methyl)-1-oxo-4-(trifluoromethyl)isoindolin-2-yl)phenyl)-3-((4-methyl-4H-1,2,4-triazol-3-yl)methyl)cyclobutane-1-carbonitrile] | > 20 | > 20 | > 0.85 | > 0.85 | > 1.39 | > 1.39 | > 1.15 | > 1.15 | < 1 | < 1
6 | CN(Cc1cc2c(c(C(F)(F)F)c1)CN(c1cccc([C@]3(Cc4nncn4C)C[C@@H](C#N)C3)c1)C2=O)C1CCC(F)(F)C1 (some centres unmarked) [Compound 32, (1r,3r)-3-(3-(6-(((3,3-difluorocyclopentyl)(methyl)amino)methyl)-1-oxo-4-(trifluoromethyl)isoindolin-2-yl)phenyl)-3-((4-methyl-4H-1,2,4-triazol-3-yl)methyl)cyclobutane-1-carbonitrile] | > 20 | > 20 | > 0.85 | > 0.85 | > 1.39 | > 1.39 | > 1.15 | > 1.15 | 2 to 5 | 
7 | CC1CN(Cc2cc3c(c(C(F)(F)F)c2)CN(c2cccc([C@]4(Cc5nncn5C)C[C@@H](C#N)C4)c2)C3=O)CCCO1 (some centres unmarked) [Compound 33, (1r,3r)-3-(3-(6-((2-methyl-1,4-oxazepan-4-yl)methyl)-1-oxo-4-(trifluoromethyl)isoindolin-2-yl)phenyl)-3-((4-methyl-4H-1,2,4-triazol-3-yl)methyl)cyclobutane-1-carbonitrile] | ≤ 15 | ≤ 15 | 0.4 to 0.85 | 0.4 to 0.85 | ≤ 1.24 | ≤ 1.24 | ≤ 1 | ≤ 1 | 2 to 5 | 
8 | CC1CCN(Cc2cc3c(c(C(F)(F)F)c2)CN(c2cccc([C@]4(Cc5nncn5C)C[C@@H](C#N)C4)c2)C3=O)CC(C)O1 (some centres unmarked) [Compound 34, (1r,3r)-3-(3-(6-((2,7-dimethyl-1,4-oxazepan-4-yl)methyl)-1-oxo-4-(trifluoromethyl)isoindolin-2-yl)phenyl)-3-((4-methyl-4H-1,2,4-triazol-3-yl)methyl)cyclobutane-1-carbonitrile] | ≤ 15 | ≤ 15 | < 0.4 | 0.4 to 0.85 | ≤ 1.24 | ≤ 1.24 | ≤ 1 | ≤ 1 | 2 to 5 | 
9 | CC1COCCN(Cc2cc3c(c(C(F)(F)F)c2)CN(c2cccc([C@]4(Cc5nncn5C)C[C@@H](C#N)C4)c2)C3=O)C1 (some centres unmarked) [Compound 35, (1r,3r)-3-(3-(6-((6-methyl-1,4-oxazepan-4-yl)methyl)-1-oxo-4-(trifluoromethyl)isoindolin-2-yl)phenyl)-3-((4-methyl-4H-1,2,4-triazol-3-yl)methyl)cyclobutane-1-carbonitrile] | 15 to 20 | 15 to 20 | 0.4 to 0.85 | 0.4 to 0.85 | 1.24 to 1.39 | 1.24 to 1.39 | 1 to 1.15 | 1 to 1.15 | 2 to 5 | 
10 | CC1CCN(Cc2cc3c(c(C(F)(F)F)c2)CN(c2cccc([C@]4(Cc5nncn5C)C[C@@H](C#N)C4)c2)C3=O)CCO1 (some centres unmarked) [Compound 36, (1r,3r)-3-(3-(6-((7-methyl-1,4-oxazepan-4-yl)methyl)-1-oxo-4-(trifluoromethyl)isoindolin-2-yl)phenyl)-3-((4-methyl-4H-1,2,4-triazol-3-yl)methyl)cyclobutane-1-carbonitrile] | ≤ 15 | 15 to 20 | < 0.4 | 0.4 to 0.85 | 1.24 to 1.39 | > 1.39 | 1 to 1.15 | 1 to 1.15 | 2 to 5 | 
11 | Cn1cnnc1C[C@]1(c2cccc(N3Cc4c(cc(CN5CCC6CCC(C5)O6)cc4C(F)(F)F)C3=O)c2)C[C@H](C#N)C1 (some centres unmarked) [Compound 37, (1r,3r)-3-(3-(6-((9-oxa-3-azabicyclo[4.2.1]nonan-3-yl)methyl)-1-oxo-4-(trifluoromethyl)isoindolin-2-yl)phenyl)-3-((4-methyl-4H-1,2,4-triazol-3-yl)methyl)cyclobutane-1-carbonitrile] | ≤ 15 | 15 to 20 | < 0.4 | 0.4 to 0.85 | 1.24 to 1.39 | 1.24 to 1.39 | 1 to 1.15 | ≤ 1 | 2 to 5 | 
12 | Cn1cnnc1C[C@]1(c2cccc(N3Cc4c(cc(CN5CC6COC(C6)C5)cc4C(F)(F)F)C3=O)c2)C[C@H](C#N)C1 (some centres unmarked) [Compound 38, (1r,3r)-3-(3-(6-((6-oxa-3-azabicyclo[3.2.1]octan-3-yl)methyl)-1-oxo-4-(trifluoromethyl)isoindolin-2-yl)phenyl)-3-((4-methyl-4H-1,2,4-triazol-3-yl)methyl)cyclobutane-1-carbonitrile] | ≤ 15 | 15 to 20 | 0.4 to 0.85 | > 0.85 | > 1.39 | > 1.39 | > 1.15 | > 1.15 | 5 to 20 | 5 to 20
